This is an account of results in US9212178B2, “Substituted pyrimidine compounds and their use as SYK inhibitors” (Genosco, priority 2013, dated 2015).

For one assay, the target named is full-length human SYK (Homo sapiens (Human), UniProt P43405). As to the kind of experiment: Inhibition of enzymatic SYK kinase activity (LANCE Ulight TK peptide). The format is biochemical. The note with it: ATP at Km (15 uM), 30 min pre-incubation. The method, then: Compounds of the present invention were assayed to measure their capacity to inhibit a spleen tyrosine kinase (SYK).
Compounds of the invention were initially diluted to 10 mM in 100% DMSO (CALBIOCHEM™) for storage and made into kinase buffer solution to create a compound concentration ranging from 1 uM and 10 uM. Serial dilutions of compounds of the invention were dispensed into a 96-well plate (GREINER BIOSCIENCES™) at 6 μL each. Purified full-length human SYK (CARNA BIOSCIENCES™) were diluted in kinase buffer and added to the compound solutions and pre-incubated for 30 minutes at room temperature. […] The reaction mixture was incubated for 1 hour. Following the incubation, the stop solution made with EDTA, water, and Lance detection buffer ([…]™) was added (12 μL each) to stop phosphorylation.

The next assay relates to THP-1 cells. As to the kind of experiment: SYK-dependent TNF-α release assay (IgG stimulation), ELISA. The note with it: THP-1 cells on human IgG-coated plate, 18 hours; read-out: TNF-α release inhibition, IgG stimulation IC50. The format is cell-based. Here is the method:
In order to address cellular potency of Compounds of Formula (I), TNF-a production was measured on treatment of a series of concentration of SYK inhibitor in THP-1 cells.
For SYK-dependent TNF-α release assay (i.e., via IgG stimulation), THP-1 cells derived from human monocytic cells were obtained from the American Type Culture Collection (ATCC, Manassas, Va.). This cell line was maintained with a Roswell Park Memorial Institute (RPMI) medium (GIBCO) containing 10% fetal bovine serum (FBS; GIBCO) and 0.05 mM solution of 2-mercaptoethanol. The THP-1 cells were seeded at 1×10^5 cells/100 μL/well into human IgG (10 ng/well, INVITROGEN)-coated 96 well culture plate, and serially diluted compound was then added. After an 18 hours of incubation period at 37° C., supernatants were collected for the determination of the TNF-α level by enzyme-linked immunosorbent assay (ELISA), and the remaining cells were subjected to an MTT (yellow tetrazolium salt) assay to determine the cytotoxic effects of the compound. The IC50 value of the test compound was calculated at Gradpad Prism 5 unless otherwise specified.

A word on the IC50: it is the concentration at which inhibition is half-maximal. With `CCn1cc(C(=O)C2CC2)c2cc(Nc3nccc(-n4cc(CN5CC(C)(O)CO5)c(C)n4)n3)ccc21` (centres unmarked) [Compound 13, cyclopropyl(1-ethyl-5-(4-(4-((4-hydroxy-4-methylisoxazolidin-2-yl)methyl)-3-methyl-1H-pyrazol-1-yl)pyrimidin-2-ylamino)-1H-indol-3-yl)methanone], the IC50 turned out to be 0.0173 µM at full-length human SYK and 0.273 µM with THP-1 cells.

As to `Cc1nn(-c2ccnc(Nc3ccc4[nH]cc(C(=O)C5CC5)c4c3)n2)cc1CN1C[C@H](O)CO1` [Compound 12, (S)-cyclopropyl(5-(4-(4-((4-hydroxyisoxazolidin-2-yl)methyl)-3-methyl-1H-pyrazol-1-yl)pyrimidin-2-ylamino)-1H-indol-3-yl)methanone], the concentration for half-maximal inhibition (IC50) against full-length human SYK is 0.0135 µM; in the assay with THP-1 cells, 0.12 µM. Consider `O=C(c1cn(CC(F)(F)F)c2ccc(Nc3nccc(-n4cc(CN5C[C@H](O)CO5)cn4)n3)cc12)C1CC1` [Compound 34, (S)-cyclopropyl(5-(4-(4-((4-hydroxyisoxazolidin-2-yl)methyl)-1H-pyrazol-1-yl)pyrimidin-2-ylamino)-1-(2,2,2-trifluoroethyl)-1H-indol-3-yl)methanone], for which the IC50 came to 0.0058 µM at full-length human SYK and 0.055 µM with THP-1 cells. Molecule `Cc1cnc(Nc2ccc3c(c2)c(C(=O)C(F)(F)F)cn3C)nc1-n1cc(CN2C[C@H](O)CO2)c(C)n1` [Compound 18, (S)-2,2,2-trifluoro-1-(5-(4-(4-((4-hydroxyisoxazolidin-2-yl)methyl)-3-methyl-1H-pyrazol-1-yl)-5-methylpyrimidin-2-ylamino)-1-methyl-1H-indol-3-yl)ethanone] came in with an IC50 against full-length human SYK of 0.159 µM. Regarding `Cc1nn(-c2ccnc(Nc3ccc4[nH]cc(C(=O)C(F)(F)F)c4c3)n2)cc1CN1C[C@H](O)CO1` [Compound 7, (S)-2,2,2-trifluoro-1-(5-(4-(4-((4-hydroxyisoxazolidin-2-yl)methyl)-3-methyl-1H-pyrazol-1-yl)pyrimidin-2-ylamino)-1H-indol-3-yl)ethanone], the IC50 at full-length human SYK was found to be 0.00828 µM; in the assay with THP-1 cells, 0.06 µM. For “(S)-cyclopropyl(1-ethyl-5-(5-fluoro-4-(3-((4-hydroxyisoxazolidin-2-yl)methyl)-4-methyl-1H-pyrrol-1-yl)pyrimidin-2-ylamino)-1H-indol-3-yl)methanone [Compound 21]”, half-maximal inhibition against full-length human SYK (IC50) required 0.23 µM. Consider `Cc1nn(-c2nc(Nc3ccc4c(c3)c(C(=O)C(F)(F)F)cn4C)ncc2Cl)cc1CN1C[C@H](O)CO1` [Compound 17, (S)-1-(5-(5-chloro-4-(4-((4-hydroxyisoxazolidin-2-yl)methyl)-3-methyl-1H-pyrazol-1-yl)pyrimidin-2-ylamino)-1-methyl-1H-indol-3-yl)-2,2,2-trifluoroethanone], for which half-maximal inhibition at full-length human SYK (IC50) was put at 0.132 µM. Consider `Cc1nn(-c2ccnc(Nc3ccc4c(c3)c(C(=O)C3CC3)cn4CCF)n2)cc1CN1C[C@H](O)CO1` [Compound 23, (S)-cyclopropyl(1-(2-fluoroethyl)-5-(4-(4-((4-hydroxyisoxazolidin-2-yl)methyl)-3-methyl-1H-pyrazol-1-yl)pyrimidin-2-ylamino)-1H-indol-3-yl)methanone], for which the IC50 at full-length human SYK came to 0.00371 µM; in the assay on THP-1 cells, 0.111 µM. On to “cyclopropyl(1-(2-fluoroethyl)-5-(4-(4-(((S)-4-hydroxyisoxazolidin-2-yl)methyl)-3-methyl-1H-pyrazol-1-yl)pyrimidin-2-ylamino)indolin-3-yl)methanone [Compound 24]”, for which the IC50 is 0.0031 µM at full-length human SYK and 0.047 µM with THP-1 cells.

Consider `CCOC(=O)n1cc(C(C)=O)c2cc(Nc3nccc(-n4cc(CN5C[C@H](O)CO5)c(C)n4)n3)ccc21` [Compound 5, (S)-ethyl 3-acetyl-5-(4-(4-((4-hydroxyisoxazolidin-2-yl)methyl)-3-methyl-1H-pyrazol-1-yl)pyrimidin-2-ylamino)-1H-indole-1-carboxylate], for which, in the assay with THP-1 cells, the IC50 amounted to 0.293 µM. Consider `Cc1nn(-c2ccnc(Nc3ccc4c(c3)c(C(=O)C3CC3)cn4CC(F)(F)F)n2)cc1CN1C[C@H](O)CO1` [Compound 15, (S)-cyclopropyl(5-(4-(4-((4-hydroxyisoxazolidin-2-yl)methyl)-3-methyl-1H-pyrazol-1-yl)pyrimidin-2-ylamino)-1-(2,2,2-trifluoroethyl)-1H-indol-3-yl)methanone], for which the IC50 on full-length human SYK worked out at 0.00298 µM; in the assay with THP-1 cells, 0.066 µM. Regarding `CC(=O)c1cn(C)c2ccc(Nc3nccc(-n4cc(CN5C[C@H](O)CO5)c(C)n4)n3)cc12` [Compound 9, (S)-1-(5-(4-(4-((4-hydroxyisoxazolidin-2-yl)methyl)-3-methyl-1H-pyrazol-1-yl)pyrimidin-2-ylamino)-1-methyl-1H-indol-3-yl)ethanone], the IC50 worked out at 0.0133 µM on full-length human SYK and 0.229 µM in the assay on THP-1 cells. `CCn1cc(C(=O)C2CC2)c2cc(Nc3ncc(C)c(-n4cc(CN5C[C@H](O)CO5)c(C)n4)n3)ccc21` [Compound 22, (S)-cyclopropyl(1-ethyl-5-(4-(4-((4-hydroxyisoxazolidin-2-yl)methyl)-3-methyl-1H-pyrazol-1-yl)-5-methylpyrimidin-2-ylamino)-1H-indol-3-yl)methanone] came in with an IC50 against full-length human SYK of 0.0793 µM. As for `O=C(c1cn(CCF)c2ccc(Nc3nccc(-n4cc(CN5C[C@H](O)CO5)cn4)n3)cc12)C1CC1` [Compound 32, (S)-cyclopropyl(1-(2-fluoroethyl)-5-(4-(4-((4-hydroxyisoxazolidin-2-yl)methyl)-1H-pyrazol-1-yl)pyrimidin-2-ylamino)-1H-indol-3-yl)methanone], the IC50 on full-length human SYK worked out at 0.00352 µM; in the assay on THP-1 cells, 0.053 µM. As to `Cc1nn(-c2ccnc(Nc3ccc4c(c3)c(C(=O)C3CC3)cn4S(C)(=O)=O)n2)cc1CN1C[C@H](O)CO1` [Compound 27, (S)-cyclopropyl(5-(4-(4-((4-hydroxyisoxazolidin-2-yl)methyl)-3-methyl-1H-pyrazol-1-yl)pyrimidin-2-ylamino)-1-(methylsulfonyl)-1H-indol-3-yl)methanone], the IC50 is 0.00589 µM against full-length human SYK and 0.043 µM in the assay with THP-1 cells.

On full-length human SYK, `Cc1nn(-c2ccnc(Nc3ccc4c(c3)c(C(=O)C(F)F)cn4C)n2)cc1CN1C[C@@H](O)CO1` [Compound 10, (R)-2,2-difluoro-1-(5-(4-(4-((4-hydroxyisoxazolidin-2-yl)methyl)-3-methyl-1H-pyrazol-1-yl)pyrimidin-2-ylamino)-1-methyl-1H-indol-3-yl)ethanone] registered an IC50 of 0.0244 µM. `Cc1nn(-c2ccnc(Nc3ccc4c(c3)c(Cl)c(C)n4C)n2)cc1CN1C[C@H](O)CO1` [Compound 31, (S)-2-((1-(2-(3-chloro-1,2-dimethyl-1H-indol-5-ylamino)pyrimidin-4-yl)-3-methyl-1H-pyrazol-4-yl)methyl)isoxazolidin-4-ol]: the IC50 in the assay on THP-1 cells worked out at 0.197 µM. On to `CCn1cc(C(=O)C2CC2)c2cc(Nc3ncc(F)c(-n4cc(CN5C[C@H](O)CO5)c(C)n4)n3)ccc21` [Compound 20, (S)-cyclopropyl(1-ethyl-5-(5-fluoro-4-(4-((4-hydroxyisoxazolidin-2-yl)methyl)-3-methyl-1H-pyrazol-1-yl)pyrimidin-2-ylamino)-1H-indol-3-yl)methanone], for which, on full-length human SYK, the IC50 worked out at 0.0662 µM. The same measure, in the same setting: the result for `Cc1nn(-c2ccnc(Nc3ccc4c(c3)c(C(=O)C3CC3)cn4C)n2)cc1CN1CC(C)(O)CCO1` (centres unmarked) [Compound 28] reads 0.106 µM.
